Peptide text beside a SMILES is read from it.
Assays:
[1] = system: ICAM-1 on choroid plexus cells (ECACC # 00031626); experiment: ICAM-1 expression on choroid plexus cell line; assay type: cell-based, rat; conditions: for ICAM-1 expression: 24 hrs
Experimental: (iv) Choroid Plexus endothelial cell culture. RCP cells (ECACC # 00031626, a kind gift from Dr. A. Chen, Weizmann Institute) (Battle et al., 2000) were cultured at 37° C. under 95% air/5% CO2 in DMEM medium containing 10% FCS, 100 U/ml penicillin, […], 1% insulin-transferrin-selenium mix (Sigma-Aldrich) and 0.1% Epidermal Growth Factor ([…]). The culture medium was changed every 2 days.
CPx cultures grown on cover slips were washed with PBS, and fixed as described above. The fixed cells were then treated with a blocking solution containing 10% FCS, 2% bovine serum albumin, 1% glycine, and 0.1% Triton X-100 (Sigma-Aldrich), and stained with hamster anti-mouse CD54 (ICAM-1) (Chemicon).

mice = conditions: one immunization with 100 μg peptide, without pertussis toxin
[2] = all concentrations tested (1-100 ng/ml)

## C[C@]12C[C@H](O)[C@H]3[C@@H](CCC4=CC(=O)CC[C@@]43C)[C@@H]1CC[C@@H]2C(=O)CO [corticosterone, reference compound]
[1]; 24 hrs incubation
  Concentration of peak ICAM-1 expression: 1 ng/mL
[1]; higher doses 20 ng/ml and 50 ng/ml
  ICAM-1 expression: significantly inhibited
[1]; lower doses 1 ng/ml and 5 ng/ml
  ICAM-1 expression: significantly elevated

## CSCC[C@H](N)C(=O)N[C@@H](CCC(=O)O)C(=O)N[C@H](C(=O)NCC(=O)N[C@@H](Cc1c[nH]c2ccccc12)C(=O)N[C@@H](Cc1ccc(O)cc1)C(=O)N[C@@H](CCCNC(=N)N)C(=O)N[C@@H](CO)C(=O)N1CCC[C@H]1C(=O)N[C@@H](Cc1ccccc1)C(=O)N[C@@H](CO)C(=O)N[C@@H](CCCNC(=N)N)C(=O)N[C@H](C(=O)N[C@H](C(=O)N[C@@H](Cc1c[nH]cn1)C(=O)N[C@@H](CC(C)C)C(=O)N[C@@H](Cc1ccc(O)cc1)C(=O)N[C@@H](CCCNC(=N)N)C(=O)N[C@@H](CC(N)=O)C(=O)NCC(=O)N[C@@H](CCCCN)C(=O)O)C(C)C)C(C)C)C(C)C [pMOG35-55] (H-MEVGWYRSPFSRVVHLYRNGK-OH; N-terminus and C-terminus assumed)
mice
  Induction of EAE: no EAE was induced

## IFN-γ: cytokine
[1]; higher concentrations
  ICAM-1 expression: significant inhibition
[1]; lower concentrations (1 ng and 10 ng)
  ICAM-1 expression: inactive

## IL-6: cytokine
[1]; [2]
  ICAM-1 expression: no effect

## TNF-α
[1]; [2]
  ICAM-1 expression: significant elevation

B1: IL-10: cytokine (protein, UniProt P22301 19-178, looked up)
Interleukin-10: SPGQGTQSENSCTHFPGNLPNMLRDLRDAFSRVKTFFQMKDQLDNLLLKESLLEDFKGYLGCQALSEMIQFYLEEVMPQAENQDPDIKAHVNSLGENLKTLRLRLRRCHRFLPCENKSKAVEQVKNAFNKLQEKGIYKAMSEFDIFINYIEAYMTMKIRN
[1]; [2]
  ICAM-1 expression: significantly reduced

Source: patent publication US20110033488A1, “AGENTS AND METHODS FOR TREATMENT OF ANXIETY DISORDERS” (Yeda Research and Development Co. Ltd., priority 2008, published 2011)
